Results reported in patent US9421193B2, “Benzothiazole derivatives and a use thereof for the treatment of cancer” (Korea Institute of Radiological & Medical Sciences, priority 2014, dated 2016).

How the values were obtained:
[1] = test system: non-small cell lung cancer cell strain A549; experiment: LDH release; format: cell-based, human; conditions: 50 uM, 0 to 48 hours, compared to untreated
Method: (§1) After incubation of the non-small cell lung cancer cell strains A549 and H460 treated with the compound PB01 or PB11 for 8, 24, and 48 hours, only supernatants were recovered the culture products. The activity of lactate dehydrogenase (LDH) may be measured by detecting an amount of LDH released from the cell cytosol with a Cytotoxicity Detection Kit (available from Roche Applied Science, Indianapolis, Ind.). The amounts of LDH release induced by the compound PB01 or PB11 were calculated as a percentage amount of extracellular LDH released from the cells with respect to a total amount of LDH as a sum of the extracellular released LDH and the intracellular LDH remaining in the cells.

[2] = test system: non-small cell lung cancer cell strain H460; experiment: LDH release; format: cell-based, human; conditions: 50 uM, 0 to 48 hours, compared to untreated
Method: as §1

[3] = test system: various cancer cell strains (A549, H460, MCF-7, T-470, LoVo, SW480, HL-60, K562); experiment: Cancer cell growth inhibition, WST-1 cell viability; format: cell-based, human; conditions: for selectivity of cell growth inhibitory effect, cancer versus non-cancer cell strains: cancer cell strains vs MRC-5 and MRC-9; for growth inhibitory effects on various cancer cell strains: concentration of 50 μM, WST-1
Method: Cancer cell growth inhibitory effects of the compounds PB01 and PB11 of Examples 5 and 3 identified as PPAR-γ ligands were evaluated. Growth inhibitory effects of the compounds PB01 and PB11 of Examples 5 and 3 on various cancer cells, including human non-small cell lung cancer cell strains (A549, H460), breast cancer cell strains (MCF-7, T-470), colorectal cancer cell strains (LoVo, SW480), and leukocytes cancer cell strains (HL-60, K562) (American Type Culture Collection, Manassas, Va.), were evaluated using WST-1 method. About 5×10^3 cells per well of each type of cancer cell strains were portioned into a 96-well plate, and incubated with different concentrations of each of the compounds PB01 and PB11 of Examples 5 and 3 in 200 ul of a culture solution for 24 hours, 48 hours, and 72 hours. After the incubation for the different durations, 10 ul of a WST-1 solution was added to each well, followed by incubation at about 37° C. for about 1 hour. Absorbance at 450 nm was measured to determine cell viability.

[4] = test system: non-small cell lung cancer cell strain A549; experiment: Apoptosis ratio, Annexin V flow cytometry; format: cell-based, human; conditions: 50 μM, about 40 hours, FIG. 9A
Method: (§2) About 5×10^5 cells per well of each of the non-small cell lung cancer cell strains A549 and H460 were portioned into a 6-well plate and then incubated with the compounds PB01 or PB11 for about 40 hours in the same manner as described above. A cell layer was washed with PBS and then treated with trypsin-EDTA solution to isolate cells. The isolated cells were collected and stained with an Annexin V Flous Staining kit (available Roche Applied Science, Penzberg, Germany) in a dark condition for about 30 minutes. The stained cells were analyzed by flow cytometry using a FACScan™ (available from Becton Dicknson) to count the number of dead cells and then calculate an apoptosis ratio. The same experiment was performed with 50 μM of PB01, 50 μM of PB11, or 150 μM of PB12 in the same manner as described above. The graphs of cell viability with respect to compound concentration and incubation time obtained based on the experimental results are shown in FIGS. 9A and 9B.

[5] = test system: non-small cell lung cancer cell strain H460; experiment: Apoptosis ratio, Annexin V flow cytometry; format: cell-based, human; conditions: about 40 hours, 50 μM PB01, 50 μM PB11, 150 μM PB12, FIGS. 9A and 9B
Method: as §2

[6] = test system: non-small cell lung cancer cell strain H460; experiment: Morphological changes, inverted microscope 200×; format: cell-based, human; conditions: 50 μM, 48 hours
Method: After the incubation along with 50 μM of the compounds PB01 or PB11 for 48 hours, morphological changes in the non-small cell lung cancer cell strain H460 were observed using an inverted microscope at a magnification of 200×.

[7] = test system: non-small cell lung cancer cell strain A549; experiment: Trypan blue live cell count (cell viability); format: cell-based, human; conditions: for cancer cell apoptosis effect: 50 μM; for cancer cell apoptosis effect with respect to concentration and incubation time: 10-50 uM, 8 to 72 hours, FIG. 3A; for IC50: Homo sapiens, time taken to reach the IC50 48 hours
Method: (§3) Whether the cancer cell growth inhibitory effects of the compounds PB01 and PB11 on the non-small cell lung cancer cell strains is associated with apoptosis was investigated. The cell growth inhibitory effects were evaluated by a trypan blue assay, and cell shapes were observed using an inverted microscope. The shapes of cell nuclei were observed via Hoeschst 33342 staining. Degrees of inducing apoptosis were quantized by flow cytometry (fluorescent activated cell sorting (FACS)).
(§4) After about 5×10^3 cells per well of each of the human non-small cell lung cancer cell strains A549 and H460 were portioned into a 96-well plate, about 10 uM to about 50 uM of the compounds PB01 or PB11 in 200 ul of culture solution were added into the wells, and incubated for about 8 to 72 hours. Cells were collected from the incubation product, and centrifuged at about 2,000 rpm for 5 minutes. After removing a supernatant, the remaining cells were mixed with 1 mL of phosphate-buffered saline (PBS) to obtain a cell suspension, which was then mixed with an equal amount of 0.5% trypan blue (Gibco BRL), followed by treatment for about 1 minute. The number of live cells was counted using a phase-contrast) microscope. The live cell counting was repeated three times, and an average live cell count and a standard error were calculated using a Microsoft Excel program. Cell viability graphs with respect to compound concentration and incubation time were obtained. The same experiment was performed with 50 μM of the compound PB01, PB11 50 μM of the compound PB11, or 150 μM of the compound PB12 150 μM, and cell viability graphs with respect to compound concentration and incubation time were obtained.

[8] = test system: non-small cell lung cancer cell strain H460; experiment: Trypan blue live cell count (cell viability); format: cell-based, human; conditions: for cancer cell apoptosis effect: 50 μM; for cancer cell apoptosis effect with respect to concentration and incubation time: FIGS. 3A and 3B, PB12 at 150 μM; for IC50: Homo sapiens, NCI-H460, time taken to reach the IC50 48 hours
Method: as §3, §4

3T3-L1 cells = experiment: PPAR-γ ligand identification test: adipogenesis induction, Oil-Red-O staining; format: cell-based; conditions: 10 μM, about 48 hours
Method: The ability to induce adipogenesis of the compound PB11 of Example 3 and the compound PB01 of Example 5 was tested to identify whether the compounds PB11 and PB01 had activity of PPAR-γ ligands. 3T3-L1 cells (American Type Culture Collection, Manassas, Va.) were treated with 10 μM of the compounds PB11 or PB01 to induce adipogenesis. 3T3-L1 cells without any treatment, those treated with the same concentration of ciglitazone, and those treated with the same concentration of GW9662 (Cayman, Ann Arbor, Mich.) known as PPAR-γ ligand antagonist were used as control groups. After the induction of adipogenesis for about 48 hours, a degree of adipogenesis was identified by Oil-Red-O staining.
FIG. 1 illustrates the results of imaging degrees of adipogenesis via Oil-Red-O staining after the treatment of 3T3-L1 cells with control compounds and 10 μM of the compounds PB01 or PB11 of Examples 3 and 5 for about 48 hours to induce adipogenesis.

| Compound | amount of extracellular LDH released [1] | amount of extracellular LDH released [2] | selectivity of cell growth inhibitory effect, cancer versus non-cancer cell strains [3] | growth inhibitory effects on various cancer cell strains [3] | apoptosis induction (Annexin V) [4] | apoptosis induction (Annexin V) [5] | morphological changes [6] | cancer cell apoptosis effect [7] | cancer cell apoptosis effect with respect to concentration and incubation time [7] | IC50 [7] [µM] | cancer cell apoptosis effect [8] | cancer cell apoptosis effect with respect to concentration and incubation time [8] | IC50 [8] [µM] | PPAR-γ ligand identification (3T3-L1 cells) | ability to induce adipogenesis (3T3-L1 cells) |
| --- | --- | --- | --- | --- | --- | --- | --- | --- | --- | --- | --- | --- | --- | --- | --- |
| COC1CCC(C(=O)Nc2ccc3nc(SCc4c(C)noc4C)sc3c2)CC1 (stereo not drawn) [PB01] | increased with time | increased with time | selectively only on cancer cell strains | prominent | kill the non-small cell lung cancer cells by inducing apoptosis | kill the non-small cell lung cancer cells by inducing apoptosis | lose adhesion with reduced density | remarkable cancer cell apoptosis effects | improved cancer cell apoptosis effects with increases in concentration and incubation time | 50 | remarkable cancer cell apoptosis effects | improved cancer cell apoptosis effects with increases in concentration and incubation time | 50 | found to be PPAR-γ ligands | outstanding ability to induce adipogenesis |
| Cc1noc(C)c1CSc1nc2ccc(NC(=O)C3CCC(=O)CC3)cc2s1 [PB11] | increased with time | increased with time | selectively only on cancer cell strains | prominent | kill the non-small cell lung cancer cells by inducing apoptosis | kill the non-small cell lung cancer cells by inducing apoptosis | lose adhesion with reduced density | remarkable cancer cell apoptosis effects | improved cancer cell apoptosis effects with increases in concentration and incubation time | 50 | remarkable cancer cell apoptosis effects | improved cancer cell apoptosis effects with increases in concentration and incubation time | 50 | found to be PPAR-γ ligands | high activity in adipogenesis induction |
